Source: PubChem BioAssay (NCI)
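Assay format: 96-well plates, 48-hour exposure. Abbreviation: GI50, concentration required for 50% inhibition of growth. TGI: concentration producing complete growth inhibition.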

Assays:
Assay in all cases: growth of human tumour cells (NCI), 48 h
[1] = test system: M14 melanoma
[2] = test system: HT29 colon
[3] = test system: NCI-H23 lung
[4] = test system: CCRF-CEM leukemia
[5] = test system: HL-60(TB) leukemia
[6] = test system: SK-MEL-5 melanoma
[7] = test system: SNB-19 CNS
[8] = test system: MDA-MB-231 breast
[9] = test system: MALME-3M melanoma
[10] = test system: HOP-92 NSCLC

Row | Structure (SMILES) | TGI [1] [µM] | TGI [2] [µM] | TGI [3] [µM] | TGI [4] [µM] | TGI [5] [µM] | TGI [6] [µM] | TGI [7] [µM] | TGI [8] [µM] | TGI [9] [µM] | TGI [10] [µM] | GI50 [1] [µM] | GI50 [2] [µM] | GI50 [3] [µM] | GI50 [4] [µM] | GI50 [5] [µM] | GI50 [6] [µM] | GI50 [7] [µM] | GI50 [8] [µM] | GI50 [9] [µM] | GI50 [10] [µM]
1 | COC(=O)c1nc2c3c(cccc3c1C(=O)OC)Nc1ccccc1-2 | > 100 | > 100 | > 100 | > 100 | > 100 | 56.5 | > 100 | > 100 | 93 | 50.2 |  |  |  |  |  |  |  |  |  | 
2 | C[C@H](CCC1=NCCN1)[C@H]1CC[C@H]2[C@@H]3CC[C@@H]4C[C@H](O)CC[C@]4(C)[C@H]3CC[C@]12C | > 22.6 | 3.65 | 35 | 14.2 |  | 3.45 | 36.3 | > 41 | 7.76 | 19.5 |  |  |  |  |  |  |  |  |  | 
3 | O=C(O)Cc1[nH]cnc1C(=O)O | > 100 | > 100 | > 100 | > 100 | > 100 | > 100 | > 100 | > 100 | > 100 | > 100 |  |  |  |  |  |  |  |  |  | 
4 | O=C(O)CNCc1c2ccccc2[n+]([O-])c2ccccc12 | > 100 | > 100 | > 100 | > 100 | 91.1 | > 100 | > 100 |  | > 100 | 78.1 |  |  |  |  |  |  |  |  |  | 
5 | CSc1sc(=S)sc1SC |  | > 100 | > 100 | > 100 | > 31.6 | > 100 | > 100 |  | > 100 | > 100 |  |  |  |  |  |  |  |  |  | 
6 | O=C(O)C(Br)Cc1ccc2c(c1)OCO2 (stereo not drawn) | > 100 | > 100 | > 100 | > 100 | > 100 | > 100 | > 100 |  | > 100 | > 100 |  |  |  |  |  |  |  |  |  | 
7 | C#C[C@@]1(O)[C@@H](CO)O[C@@H](n2cc(F)c3c(N)ncnc32)[C@@H]1O | 2.39 | > 100 | 6.85 | > 100 | 3.53 | 1.33 | 13.7 | 2.98 | 1.81 |  | 0.481 | 0.207 | 0.398 | 0.338 | 0.436 | 0.267 | 0.524 | 0.379 | 0.362 | 
8 | CCOn1cc(C2=C(c3c[nH]c4ccccc34)C(=O)NC2=O)c2ccccc21 | 17.9 | 12.8 | 0.47 | 19 |  | < 0.01 | 20.5 | 26.4 |  | 38.8 | 0.0542 | < 0.0224 | < 0.028 | 0.0672 | < 0.0176 | < 0.01 | < 0.0264 | 0.806 |  | 23.2
9 | C/C(=C\COP(=O)(O)OP(=O)(O)O)CC/C=C(\C)CNc1ccc([N+](=O)[O-])cc1 | > 100 | > 100 | > 100 | > 100 | > 100 | > 100 | > 100 | > 100 | > 100 | > 100 |  |  |  |  |  |  |  |  |  | 
10 | CSc1ccc(-c2cc(-c3nc4ccccc4[nH]3)nc3[nH]c(-c4nc5ccccc5[nH]4)cc(=O)c23)cc1 | > 100 | > 100 | > 100 | > 100 | > 100 |  | > 100 |  | > 100 | > 100 |  |  |  |  |  |  |  |  |  | 
11 | Nc1nncs1 | > 5000 | > 3390 | > 4730 | > 5000 | > 5000 | > 5000 | > 5000 | > 5000 | > 5000 | 4660 |  |  |  |  |  |  |  |  |  | 
